These compounds were tested against T1, human growth hormone secretagogue receptor (hGHS-R1a) (Homo sapiens, UniProt Q92847) (assay: Competitive radioligand binding assay (ghrelin receptor), [125I]-ghrelin displacement on GHS-R/HEK 293 membranes). Conditions: Table 3C (compounds 18, 334-397), human ghrelin receptor; read-out: Ki.
T1 construct: purchased PerkinElmer BioSignal #RBHGHSM, lot#1887; host or cells: HEK-293, stably transfected (membranes)
Description: The competitive binding assay at the human growth hormone secretagogue receptor (hGHS-R1a) was carried out analogously to assays described in the literature.
Multiscreen Harvest plates-GF/C (Millipore, #MAHFC 1H60) • 4. […] Bottom seal (Millipore, #MATAH0P00) • 7. […] Binding Buffer: 25 mM Hepes (pH 7.4), 1 mM CaCl2, 5 mM MgCl2, 2.5 mM EDTA, 0.4% BSA Assay Volumes
Competition experiments were performed in a 300 μl filtration assay format. • 1. 220 μL of membranes diluted in binding buffer • 2. 40 μL of compound diluted in binding buffer • 3. […] Compound Handling
Compounds were provided frozen on dry ice at a stock concentration of 10 mM diluted in 100% DMSO and stored at −80° C. until the day of testing. On the test day, compounds were allowed to thaw at rt O/N and then diluted in assay buffer according to the desired test concentrations.
Plates were sealed with TopSeal-A, vortexed gently and incubated at rt for 30 min. The reaction was arrested by filtering samples through Multiscreen Harvest plates (pre-soaked in 0.5% polyethyleneimine) using a Tomtec Harvester, washed 9 times with 500 μL of cold 50 mM Tris-HCl (pH 7.4, 4° C.), and then plates were air-dried in a fumehood for 30 min. A bottom seal was applied to the plates prior to the addition of 25 μL of MicroScint-0 to each well. […] Results were expressed as counts per minute (cpm).
Data were analyzed by GraphPad Prism (GraphPad Software, San Diego, Calif.) using a variable slope non-linear regression analysis.
• 1. […] Key Aspects of Method • 1. […] Results

T1 sequence (Q92847 whole entry): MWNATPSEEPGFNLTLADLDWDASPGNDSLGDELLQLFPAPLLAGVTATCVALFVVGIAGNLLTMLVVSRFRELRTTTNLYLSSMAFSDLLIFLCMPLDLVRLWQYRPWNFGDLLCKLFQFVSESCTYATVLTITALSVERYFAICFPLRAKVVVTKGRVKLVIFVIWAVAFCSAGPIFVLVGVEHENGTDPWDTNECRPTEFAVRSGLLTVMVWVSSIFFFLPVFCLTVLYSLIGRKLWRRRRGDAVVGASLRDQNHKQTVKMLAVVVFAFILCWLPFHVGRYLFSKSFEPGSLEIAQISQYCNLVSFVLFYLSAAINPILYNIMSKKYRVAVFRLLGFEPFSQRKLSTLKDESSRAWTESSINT

Ki [nM] | Compound
10 to 100 | CC1(C)NCCOc2ccccc2C=CCNC(=O)[C@H](Cc2cccc(Cl)c2)NC(=O)C2(CCCC2)NC1=O (stereo in doubt) [compound 349]
100 to 1000 | CC1(C)NCCOc2ccccc2C=CCNC(=O)[C@H](Cc2cccc(Cl)c2)NC(=O)C(C)(C)NC1=O (stereo in doubt) [compound 350]
100 to 1000 | C[C@@H]1NC(=O)C2(CCCC2)NCCOc2ccccc2C=CCNC(=O)[C@H](Cc2cccc(Cl)c2)NC1=O (stereo in doubt) [compound 352]

Same assay, conditions: Table 3E, human ghrelin receptor; read-out: Ki

Ki [nM] | Compound
1000 to 10000 | CCC[C@@H]1NCCOc2ccccc2CCCNC(=O)[C@@H](Cc2ccccc2)NC(=O)[C@@H]2CCCN2C1=O
100 to 1000 | CCC[C@@H]1NCCOc2ccccc2CCCNC(=O)[C@@H](Cc2ccccc2)NC(=O)[C@H]2CCCN2C1=O
1000 to 10000 | CCC[C@@H]1NCCOc2ccccc2CCCNC(=O)[C@H](Cc2ccccc2)NC(=O)[C@@H]2CCCN2C1=O
1000 to 10000 | CCC[C@@H]1NCCOc2ccccc2CCCNC(=O)[C@H](Cc2ccccc2)NC(=O)[C@H]2CCCN2C1=O
> 10000 | CCC(C)[C@@H]1NCCOc2ccccc2CCCNC(=O)[C@@H](Cc2ccccc2)NC(=O)[C@H]2C[C@H](O)CN2C1=O (some centres unmarked)
100 to 1000 | C[C@@H]1C(=O)N[C@H](Cc2ccccc2)C(=O)NCCCc2ccccc2OCCN2CCC[C@H]2C(=O)N1C
100 to 1000 | CCC(C)[C@@H]1NCCOc2ccccc2CCCNC(=O)[C@@H](Cc2ccccc2)N2CC[C@@H](NC1=O)C2=O (some centres unmarked)
> 10000 | CCC(C)[C@@H]1NCCOc2ccccc2CCCNC(=O)[C@@H](Cc2ccccc2)N2CC[C@H](NC1=O)C2=O (some centres unmarked)
10 to 100 | CCC(C)[C@@H]1NCCOc2ccccc2CCCNC(=O)[C@@H](Cc2ccccc2)N2CC[C@H](C2=O)N(C)C1=O (some centres unmarked)
100 to 1000 | CCC(C)[C@@H]1NCCOc2ccccc2CCCNC(=O)[C@@H](Cc2ccccc2)N2CC[C@@H](C2=O)N(C)C1=O (some centres unmarked)
1000 to 10000 | CCC(C)C1NCCOc2ccccc2CCCNC(=O)C(Cc2ccccc2)N2CCC(C2=O)N(C)C1=O (stereo not drawn) [230 diastereomer]

Same assay, conditions: [125I]-ghrelin competition, GHS-R/HEK 293 membranes; Table 3A; read-out: Binding Activity at the Human Ghrelin Receptor

Ki [nM] | Compound
100 to 1000 | CCC(C)C1NCCc2ccccc2CCCCNC(=O)C(Cc2ccccc2)NC(=O)C(C)N(C)C1=O (single isomer, unassigned) [189a]
> 1000 | CC(C)CC1NCCOc2ccccc2C=CCNC(=O)C(Cc2ccccn2)NC(=O)C2(CCCC2)NC1=O (stereo in doubt) [160a]
100 to 1000 | CC(C)C[C@@H]1NCCOc2ccccc2C=CCNC(=O)[C@H](Cc2ccc(-c3ccccc3)cc2)NC(=O)C2(CCCC2)NC1=O (stereo in doubt) [compound 157]
10 to 100 | CC(C)C[C@@H]1NCCOc2ccccc2C=CCNC(=O)[C@H](Cc2ccc3ccccc3c2)NC(=O)C2(CCCC2)NC1=O (stereo in doubt) [compound 159]
100 to 1000 | CC(C)C[C@@H]1NCCOc2ccccc2C=CCNC(=O)[C@H](Cc2cccs2)NC(=O)C2(CCCC2)NC1=O (stereo in doubt) [compound 164]
> 10000 | CC[C@@H]1NC(=O)C2(CCCC2)NC(=O)[C@H](CC(C)C)NCCOc2ccccc2C=CCNC1=O (stereo in doubt) [compound 165]
100 to 1000 | CC(C)[C@@H]1NCCOc2ccccc2C=CCNC(=O)[C@H](Cc2ccccc2)NC(=O)C2(CC2)NC1=O (stereo in doubt) [compound 199]
1000 to 10000 | CC(C)C[C@H]1C(=O)NC2(CCCC2)C(=O)N[C@@H](Cc2ccccc2)C(=O)NCC=Cc2ccccc2OCCN1C (stereo in doubt) [compound 203]
> 1000 | CC(C)C1NCCOc2ccccc2C=CCNC(=O)C(Cc2ccccc2)NC(=O)C2(CCNCC2)NC1=O (stereo in doubt) [compound 211]

Same assay, conditions: binding activity at the human ghrelin receptor, [125I]-ghrelin competition, GHS-R/HEK 293 membranes; read-out: Ki

Ki [nM] | Compound
10 to 100 | CCC1NCCOc2ccccc2C=CCNC(=O)C(Cc2ccccc2)NC(=O)C2(CCCC2)NC1=O (single isomer, unassigned) [136a]
100 to 1000 | CCC1NCCOc2ccccc2/C=C/CNC(=O)C(Cc2ccccc2)NC(=O)C2(CCCC2)NC1=O (single isomer, unassigned) [136b]
100 to 1000 | CCC(C)C1NCCOc2ccccc2CCCNC(=O)C(Cc2ccccc2)NC(=O)C(C(C)C)N(C)C1=O (single isomer, unassigned) [145a]
> 1000 | CCC(C)C1NCCOc2ccccc2CCCNC(=O)C(Cc2ccccc2)NC(=O)C(C(C)C)N(C)C1=O (single isomer, unassigned) [145b]
100 to 1000 | CCC[C@@H]1NC(=O)[C@@H](C(C)C)NCCOc2ccccc2C=CCNC(=O)[C@H](Cc2ccccc2)NC1=O (stereo in doubt) [compound 13]
100 to 1000 | CC[C@H](C)[C@@H]1NCCOc2ccccc2C=CCNC(=O)[C@H](Cc2ccccc2)NC(=O)[C@@H](C)NC1=O (stereo in doubt) [compound 14]
> 10000 | CC(C)C[C@@H]1NCCOc2ccccc2C=CCNC(=O)[C@H](CCC(=O)O)NC(=O)C2(CCCC2)NC1=O (stereo in doubt) [compound 45]
> 10000 | CC(C)C[C@@H]1NCCOc2ccccc2C=CCNC(=O)[C@H](C(C)C)NC(=O)C2(CCCC2)NC1=O (stereo in doubt) [compound 46]
100 to 1000 | O=C1NC2(CCCC2)C(=O)N[C@@H](Cc2ccccc2)C(=O)NCC=Cc2ccccc2OCCN[C@H]1Cc1ccccc1Cl (stereo in doubt) [compound 122]
100 to 1000 | O=C1NC2(CCCC2)C(=O)N[C@@H](Cc2ccccc2)C(=O)NCC=Cc2ccccc2OCCN[C@H]1Cc1cccc(Cl)c1 (stereo in doubt) [compound 123]
1000 to 10000 | O=C1NC2(CCCC2)C(=O)N[C@@H](Cc2ccccc2)C(=O)NCC=Cc2ccccc2OCCN[C@H]1Cc1ccc(Cl)cc1 (stereo in doubt) [compound 124]
100 to 1000 | O=C1NC2(CCCC2)C(=O)N[C@@H](Cc2ccccc2)C(=O)NCC=Cc2ccccc2OCCN[C@H]1CCc1ccccc1 (stereo in doubt) [compound 126]
> 10000 | O=C1NC2(CCCC2)C(=O)N[C@@H](Cc2ccccc2)C(=O)NCC=Cc2ccccc2OCCN[C@H]1Cc1ccc(-c2ccccc2)cc1 (stereo in doubt) [compound 128]
> 1000 | O=C1NC2(CCCC2)C(=O)N[C@@H](Cc2ccccc2)C(=O)NCC=Cc2ccccc2OCCN[C@H]1Cc1ccncc1 (stereo in doubt) [compound 133]
100 to 1000 | O=C1NC2(CCCC2)C(=O)NC(Cc2ccccc2)C(=O)NCC=Cc2ccccc2OCCNC1Cc1cccs1 (stereo in doubt) [compound 135]
10 to 100 | CC[C@H](C)[C@@H]1NCCOc2ccccc2C=CCNC(=O)[C@H](Cc2ccccc2)NC(=O)C2(CCCC2)NC1=O (stereo in doubt) [compound 138]
100 to 1000 | CC(C)[C@@H]1NCCOc2ccccc2C=CCNC(=O)[C@H](Cc2ccccc2)NC(=O)C2(CCCCC2)NC1=O (stereo in doubt) [compound 139]
100 to 1000 | CC(C)C1NCCOc2ccccc2C=CCNC(=O)C(Cc2ccccc2)NC(=O)C2(CCSCC2)NC1=O (stereo in doubt) [compound 143]
> 500 | CC(C)C[C@@H]1NCCOc2ccccc2C=CCNC(=O)[C@H](CCc2ccccc2)NC(=O)C2(CCCC2)NC1=O (stereo in doubt) [compound 155]
100 to 1000 | CCC(C)C1NCCOc2ccccc2CCCNC(=O)C(Cc2ccccc2)NC(=O)C(C(C)CC)N(C)C1=O (centres unmarked) [150a]
10 to 100 | CCC(C)C1NCCOc2ccccc2CCCNC(=O)C(Cc2ccccn2)NC(=O)C(C)N(C)C1=O (centres unmarked) [compound 32]
10 to 100 | CCC(C)C1NCCOc2ccccc2CCCNC(=O)C(Cc2ccccc2)NC(=O)C(CC)N(C)C1=O (centres unmarked) [compound 41]
> 10000 | CC(C)CC1NCCOc2ccccc2C=CCNC(=O)C(CC(C)C)NC(=O)C2(CCCC2)NC1=O (centres unmarked) [compound 47]
> 10000 | CCC[C@@H]1NCCOc2ccccc2CCCNC(=O)[C@@H](C)NC(=O)CN(C)C1=O [compound 49]

Same assay, conditions: binding activity at the human ghrelin receptor, [125I]-ghrelin displacement; read-out: Ki

Ki [nM] | Compound
0.1 to 10 | C[C@@H]1C(=O)N[C@H](Cc2ccc(Cl)cc2)C(=O)NCC=Cc2ccccc2OCCN[C@@H](C2CC2)C(=O)N1C (stereo in doubt) [compound 308]
10 to 100 | CC[C@H](C)[C@@H]1NCCOc2ccccc2CCCNC(=O)C(Cc2cccc(Cl)c2)NC(=O)C2(CCCC2)NC1=O (stereo in doubt) [compound 369]

Same assay, conditions: second table titled 3C (compounds 435-449), human ghrelin receptor; read-out: Ki

Ki [nM] | Compound
> 10000 | CCC(C)C1NCCOc2ccccc2/C=C/CNC(=O)C(CO)NC(=O)C2(CCCC2)NC1=O (single isomer, unassigned) [442a]
> 10000 | CCC(C)C1NCCOc2ccccc2/C=C/CNC(=O)C(COC)NC(=O)C2(CCCC2)NC1=O (single isomer, unassigned) [443a]
> 10000 | CC(C)CC1NCCOc2ccccc2/C=C/CNC(=O)C(Cc2c[nH]cn2)NC(=O)C2(CCCC2)NC1=O (single isomer, unassigned) [444a]
1000 to 10000 | CC1C(=O)NC(Cc2ccc(F)cc2)C(=O)NCCOCCOCCNC(C2CC2)C(=O)N1C (single isomer, unassigned) [446a]

— patent publication US20060025566A1, “Macrocyclic modulators of the ghrelin receptor” (Tranzyme Pharma Inc., priority 2003, published 2006)
